Each block holds one compound with its values, some of them ahead of it.
Tests used:
[1] = target: von Hippel-Lindau disease tumor suppressor (Homo sapiens, UniProt P40337); experiment: Binding affinity to VHL (unknown origin) assessed as dissociation constant by fluorescence polarization assay
[2] = target: T1, Von Hippel-Lindau disease tumor suppressor/Elongin B/Elongin C (Homo sapiens, UniProt P40337); experiment: Inhibition of VHL (unknown origin) (1 to 213 residues)/ElonginC/ElonginB expressed in Escherichia coli BL21 (DE3) using (FAM)-labeled HIF-1alpha peptide as substrate incubated for 2 hrs by fluorescence polarization assay
T1 sequence (P40337 whole entry, looked up, the tested form may be a part): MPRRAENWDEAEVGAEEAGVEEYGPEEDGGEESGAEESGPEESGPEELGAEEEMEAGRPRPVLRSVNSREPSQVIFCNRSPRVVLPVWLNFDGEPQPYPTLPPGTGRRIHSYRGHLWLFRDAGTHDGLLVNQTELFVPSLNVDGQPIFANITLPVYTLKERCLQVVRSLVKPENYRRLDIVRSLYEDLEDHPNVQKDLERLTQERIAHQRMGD

[3] = target: T2, von Hippel-Lindau disease tumor suppressor/Estrogen receptor (Homo sapiens, UniProt P03372+P40337); experiment: PROTAC activity at VHL E3 ligase/ERalpha in human T47D cells assessed as maximal degradation of ERalpha protein level at 7.7 nM by Western blot analysis relative to control; format: cell-based
Target sequence in this assay (P03372 whole entry, looked up): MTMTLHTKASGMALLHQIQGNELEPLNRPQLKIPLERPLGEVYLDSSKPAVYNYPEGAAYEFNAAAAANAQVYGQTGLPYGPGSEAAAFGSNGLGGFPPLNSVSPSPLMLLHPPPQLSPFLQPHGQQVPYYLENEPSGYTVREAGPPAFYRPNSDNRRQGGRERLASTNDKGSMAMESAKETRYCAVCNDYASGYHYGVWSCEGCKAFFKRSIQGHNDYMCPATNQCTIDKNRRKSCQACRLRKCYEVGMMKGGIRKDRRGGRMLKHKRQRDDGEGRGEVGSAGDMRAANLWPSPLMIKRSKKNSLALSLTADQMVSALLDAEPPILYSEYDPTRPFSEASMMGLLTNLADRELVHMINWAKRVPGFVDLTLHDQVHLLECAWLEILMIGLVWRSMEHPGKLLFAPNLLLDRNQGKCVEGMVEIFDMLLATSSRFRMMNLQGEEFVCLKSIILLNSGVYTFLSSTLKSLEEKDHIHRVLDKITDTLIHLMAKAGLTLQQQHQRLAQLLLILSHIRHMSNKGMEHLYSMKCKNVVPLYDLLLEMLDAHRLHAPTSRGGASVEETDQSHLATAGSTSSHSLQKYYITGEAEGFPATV
Target sequence in this assay (P40337 whole entry, looked up): as the sequence (P40337 whole entry, looked up, the tested form may be a part) above

[4] = target: T2, von Hippel-Lindau disease tumor suppressor/Estrogen receptor; experiment: PROTAC activity at VHL E3 ligase/ERalpha in human T47D cells assessed as maximal degradation of ERalpha protein level at 10.3 nM by Western blot analysis relative to control; format: cell-based
Target sequence in this assay (P03372 whole entry, looked up): as the sequence (P03372 whole entry, looked up) above
Target sequence in this assay (P40337 whole entry, looked up): as the sequence (P40337 whole entry, looked up, the tested form may be a part) above

[5] = tested on: von Hippel-Lindau disease tumor suppressor/Mitogen-activated protein kinase 14; experiment: PROTAC activity at VHL/N-terminal His-tagged human p38alpha expressed in […] assessed as maximal degradation relative to control
[6] = PROTAC activity at VHL/N-terminal His-tagged human p38alpha expressed in […] assessed as p38alpha degradation
[7] = target: von Hippel-Lindau disease tumor suppressor/Bromodomain-containing protein 4 (Homo sapiens, UniProt O60885+P40337); experiment: PROTAC activity at human VHL/BRD4 in human HeLa cells assessed as degradation of BRD4 incubated for 24 hrs by Western blot analysis; format: cell-based
Chain of von Hippel-Lindau disease tumor suppressor/Bromodomain-containing protein 4 (Homo sapiens, UniProt O60885+P40337) (P40337 whole entry, looked up, other chains not shown): as the sequence (P40337 whole entry, looked up, the tested form may be a part) above

[8] = target: T2, von Hippel-Lindau disease tumor suppressor/Estrogen receptor; experiment: PROTAC activity at VHL E3 ligase/ERalpha in human MCF7 cells assessed as reduction in ERalpha protein level by Western blot analysis; format: cell-based
Target sequence in this assay (P03372 whole entry): as the sequence (P03372 whole entry, looked up) above
Target sequence in this assay (P40337 whole entry): as the sequence (P40337 whole entry, looked up, the tested form may be a part) above

[9] = target: T3, von Hippel-Lindau disease tumor suppressor/Androgen receptor (Homo sapiens, UniProt P10275+P40337); experiment: PROTAC activity at VHL/AR in human LNCaP cells assessed as induction of AR degradation by Western blot analysis; format: cell-based
Target sequence in this assay (P10275 whole entry): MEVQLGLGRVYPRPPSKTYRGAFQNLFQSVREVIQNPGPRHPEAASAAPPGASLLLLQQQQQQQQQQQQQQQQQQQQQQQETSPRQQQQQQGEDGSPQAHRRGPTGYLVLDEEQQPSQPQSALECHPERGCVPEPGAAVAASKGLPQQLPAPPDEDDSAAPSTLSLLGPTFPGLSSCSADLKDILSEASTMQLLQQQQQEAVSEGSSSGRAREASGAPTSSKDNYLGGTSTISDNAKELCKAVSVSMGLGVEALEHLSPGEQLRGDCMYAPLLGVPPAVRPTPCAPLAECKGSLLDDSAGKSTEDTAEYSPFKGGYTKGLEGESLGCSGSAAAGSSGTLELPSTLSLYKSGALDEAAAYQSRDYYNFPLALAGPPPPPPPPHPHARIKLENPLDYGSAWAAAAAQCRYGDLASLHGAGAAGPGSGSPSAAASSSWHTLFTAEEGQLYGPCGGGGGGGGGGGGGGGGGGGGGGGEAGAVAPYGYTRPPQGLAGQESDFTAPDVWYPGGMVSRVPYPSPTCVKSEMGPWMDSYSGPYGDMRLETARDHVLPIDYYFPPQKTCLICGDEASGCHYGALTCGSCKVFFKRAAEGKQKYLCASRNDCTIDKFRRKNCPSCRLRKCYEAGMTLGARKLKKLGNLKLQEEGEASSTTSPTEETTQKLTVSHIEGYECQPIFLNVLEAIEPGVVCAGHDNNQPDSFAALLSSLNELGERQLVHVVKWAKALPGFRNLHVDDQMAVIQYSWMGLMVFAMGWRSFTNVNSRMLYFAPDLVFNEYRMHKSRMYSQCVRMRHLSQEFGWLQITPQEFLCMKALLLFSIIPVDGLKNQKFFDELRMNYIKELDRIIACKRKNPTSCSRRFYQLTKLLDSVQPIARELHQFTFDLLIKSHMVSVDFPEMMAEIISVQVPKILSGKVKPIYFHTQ
Target sequence in this assay (P40337 whole entry): as the sequence (P40337 whole entry, looked up, the tested form may be a part) above

[10] = target: T3, von Hippel-Lindau disease tumor suppressor/Androgen receptor; experiment: PROTAC activity at VHL/AR in human LNCaP cells assessed as maximum degradation of AR at 75 uM incubated for 16 hrs by Western blot analysis relative to control; format: cell-based
Target sequence in this assay (P10275 whole entry, looked up): as the sequence (P10275 whole entry) above
Target sequence in this assay (P40337 whole entry, looked up): as the sequence (P40337 whole entry, looked up, the tested form may be a part) above

[11] = target: T1, Von Hippel-Lindau disease tumor suppressor/Elongin B/Elongin C; experiment: Inhibition of VHL/Elongin B/Elogin C (unknown origin) using FAM-DEALA-Hyp-YIPD as substrate by fluorescence polarization assay; format: protein-complex assay
[12] = target: von Hippel-Lindau disease tumor suppressor/Bromodomain-containing protein 4; experiment: PROTAC activity at VHL/BRD4 in human 22Rv1 cells assessed as induction of BRD4 degradation by Immunoblot analysis
[13] = tested on: von Hippel-Lindau disease tumor suppressor/Bromodomain-containing protein 4; experiment: PROTAC activity at VHL/BRD4 in human VCaP cells assessed as maximum degradation of BRD4 by Western blot analysis relative to control
[14] = target: von Hippel-Lindau disease tumor suppressor/Bromodomain-containing protein 3 (Homo sapiens, UniProt Q15059+P40337); experiment: PROTAC activity at VHL/BRD3 in human 22Rv1 cells assessed as induction of BRD3 degradation by Immunoblot analysis; format: cell-based
Chain of von Hippel-Lindau disease tumor suppressor/Bromodomain-containing protein 3 (Q15059 whole entry): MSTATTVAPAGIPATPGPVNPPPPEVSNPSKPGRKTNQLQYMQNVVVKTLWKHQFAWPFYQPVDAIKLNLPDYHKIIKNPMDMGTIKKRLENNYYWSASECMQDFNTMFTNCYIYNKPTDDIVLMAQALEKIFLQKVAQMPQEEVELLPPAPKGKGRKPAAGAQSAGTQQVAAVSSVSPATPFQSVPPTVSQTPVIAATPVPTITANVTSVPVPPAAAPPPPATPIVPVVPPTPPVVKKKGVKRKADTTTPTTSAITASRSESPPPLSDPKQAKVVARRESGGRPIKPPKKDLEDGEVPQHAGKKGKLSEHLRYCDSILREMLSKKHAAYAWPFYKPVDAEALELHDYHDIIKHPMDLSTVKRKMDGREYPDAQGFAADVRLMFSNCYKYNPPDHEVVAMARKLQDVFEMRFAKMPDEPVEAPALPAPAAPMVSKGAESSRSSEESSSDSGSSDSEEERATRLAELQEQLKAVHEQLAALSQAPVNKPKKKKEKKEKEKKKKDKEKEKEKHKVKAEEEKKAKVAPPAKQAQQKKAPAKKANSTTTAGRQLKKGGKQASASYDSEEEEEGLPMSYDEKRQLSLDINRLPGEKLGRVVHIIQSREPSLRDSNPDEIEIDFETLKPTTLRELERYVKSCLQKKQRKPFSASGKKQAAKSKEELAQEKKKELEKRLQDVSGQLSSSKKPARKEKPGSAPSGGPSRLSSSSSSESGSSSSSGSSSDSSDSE
Chain of von Hippel-Lindau disease tumor suppressor/Bromodomain-containing protein 3 (P40337 whole entry): as the sequence (P40337 whole entry, looked up, the tested form may be a part) above

[15] = target: von Hippel-Lindau disease tumor suppressor/Bromodomain-containing protein 2 (Homo sapiens, UniProt P25440+P40337); experiment: PROTAC activity at VHL/BRD2 in human 22Rv1 cells assessed as induction of BRD2 degradation by Immunoblot analysis; format: cell-based
Chain of von Hippel-Lindau disease tumor suppressor/Bromodomain-containing protein 2 (P25440 whole entry): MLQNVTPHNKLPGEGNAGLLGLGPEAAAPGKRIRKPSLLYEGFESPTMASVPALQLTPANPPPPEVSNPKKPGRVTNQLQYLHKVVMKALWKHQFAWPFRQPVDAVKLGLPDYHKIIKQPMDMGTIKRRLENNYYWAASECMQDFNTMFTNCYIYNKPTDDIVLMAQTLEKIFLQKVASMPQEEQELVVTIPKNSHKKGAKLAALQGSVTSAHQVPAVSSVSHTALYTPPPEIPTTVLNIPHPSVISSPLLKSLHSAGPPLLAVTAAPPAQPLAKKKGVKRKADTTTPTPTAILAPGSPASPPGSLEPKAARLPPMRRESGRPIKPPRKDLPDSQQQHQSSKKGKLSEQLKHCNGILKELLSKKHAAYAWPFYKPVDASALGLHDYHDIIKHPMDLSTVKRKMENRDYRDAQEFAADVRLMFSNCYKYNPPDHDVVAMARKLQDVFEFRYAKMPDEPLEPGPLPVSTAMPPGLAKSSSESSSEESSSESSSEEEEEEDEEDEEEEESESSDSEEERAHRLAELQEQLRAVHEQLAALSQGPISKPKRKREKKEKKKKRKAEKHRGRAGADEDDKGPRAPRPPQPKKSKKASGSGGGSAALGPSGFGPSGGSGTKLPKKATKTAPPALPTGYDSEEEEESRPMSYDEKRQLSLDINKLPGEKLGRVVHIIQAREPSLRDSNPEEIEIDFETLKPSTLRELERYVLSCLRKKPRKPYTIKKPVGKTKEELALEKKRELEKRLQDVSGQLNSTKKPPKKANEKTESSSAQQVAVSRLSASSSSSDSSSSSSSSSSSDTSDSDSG
Chain of von Hippel-Lindau disease tumor suppressor/Bromodomain-containing protein 2 (P40337 whole entry): as the sequence (P40337 whole entry, looked up, the tested form may be a part) above

CWR22R = experiment: Antiproliferative activity against human 22Rv1 cells assessed as reduction in cell viability incubated for 48 hrs by MTT assay; format: functional, cell-based; conditions: 22Rv1, 48 h

Chain of von Hippel-Lindau disease tumor suppressor (P40337 whole entry, the tested form may be a part): as the sequence (P40337 whole entry, looked up, the tested form may be a part) above

Compound: Cc1ncsc1-c1ccc([C@H](C)NC(=O)[C@@H]2C[C@@H](O)CN2C(=O)[C@@H](NC(=O)CCCCOc2ccc(CCNC(=O)c3ccc(C(=O)c4c(-c5ccc(O)cc5)sc5cc(O)ccc45)cc3)cc2)C(C)(C)C)cc1
- Emax [3]: 98%
- Emax [4]: 98%

Compound: Cc1cc(-c2scnc2C)c(C)cc1CNC(=O)[C@@H]1C[C@@H](O)CN1C(=O)[C@H](NC(=O)C1(C#N)CC1)C(C)(C)C
- Kd [1]: 528 nM

Compound: CC(=O)N[C@H](C(=O)N1C[C@H](O)[C@@H](F)[C@H]1C(=O)Nc1ccc(-c2scnc2C)cc1)C(C)(C)C
- DC50 [7]: 10 nM

Compound: COc1cc(-c2scnc2C)c(F)cc1CNC(=O)[C@@H]1C[C@@H](O)CN1C(=O)[C@H](NC(=O)C1(F)CC1)C(C)(C)C
- Kd [1]: 134 nM

Compound: Cc1cc([C@H](C(=O)N2C[C@H](S(=O)(=O)F)C[C@H]2C(=O)N[C@@H](CC(=O)N2CCC(C#Cc3ccc(C(=O)N[C@H]4C(C)(C)[C@H](Oc5ccc(C#N)c(C(F)(F)F)c5)C4(C)C)cc3)CC2)c2ccc(-c3scnc3C)cc2)C(C)C)on1
- DC50 [9]: 527 nM
- Emax [10]: 54%

Compound: Cc1cc(-c2scnc2C)ccc1[C@H](C)NC(=O)[C@@H]1C[C@@H](O)CN1C(=O)[C@H](NC(=O)C1(F)CC1)C(C)(C)C
- Kd [1]: 37 nM

Compound: Cc1ncsc1-c1ccc([C@H](C)NC(=O)[C@@H]2C[C@@H](O)CN2C(=O)[C@@H](NC(=O)COCCOCCOCCNC(=O)C[C@@H]2N=C(c3ccc(Cl)cc3)c3c(sc(C)c3C)-n3c(C)nnc32)C(C)(C)C)cc1
- DC50 [12]: < 5 nM
- Emax [13]: > 99%
- DC50 [14]: < 5 nM
- DC50 [15]: < 5 nM
- EC50 (CWR22R): 90 nM

Second part, the compound after the results:

- Kd [1]: 1040 nM
Compound: Cc1ncsc1-c1cc2c(cc1F)[C@@H](NC(=O)[C@@H]1C[C@@H](O)CN1C(=O)[C@H](NC(=O)C1(F)CC1)C(C)(C)C)CCCC2

- IC50 [2]: 2290 nM
Compound: COc1cccc(/C=C2\Oc3cc(OCC(=O)N4CC(O)C[C@H]4C(=O)O)ccc3C2=O)c1 (stereo partly drawn)

- Emax [5]: 97.4%
- DC50 [6]: 7.16 nM
Compound: COc1cc2c(Oc3ccc(NC(=O)C4(C(=O)Nc5ccc(F)cc5)CC4)cc3F)ccnc2cc1OCCCCOCCCCOCC(=O)N[C@@H](C(=O)N1C[C@H](O)C[C@H]1C(=O)NCc1ccc(-c2scnc2C)cc1)C(C)(C)C

- IC50 [2]: 10100 nM
Compound: Cc1ncsc1-c1ccc(CNC(=O)[C@@H]2C[C@@H](O)CN2C(=O)c2cccc(N)c2C)cc1

- Kd [1]: 186 nM
Compound: Cc1ncsc1-c1ccc([C@H](C)NC(=O)[C@@H]2C[C@@H](O)CN2C(=O)[C@H](NC(=O)C2(C#N)CC2)C(C)(C)C)cc1F

- Emax [3]: > 95%
- DC50 [8]: 10 nM
Compound: Cc1ncsc1-c1ccc([C@H](C)NC(=O)[C@@H]2C[C@@H](O)CN2C(=O)[C@@H](NC(=O)CCCCOc2ccc(/C=C/NC(=O)c3ccc(C(=O)c4c(-c5ccc(O)cc5)sc5cc(O)ccc45)cc3)cc2)C(C)(C)C)cc1

- Kd [1]: 73 nM
Compound: Cc1ncsc1-c1ccc([C@H](C)NC(=O)[C@@H]2C[C@@H](O)CN2C(=O)[C@H](NC(=O)C2(F)CC2)C(C)(C)C)cc1F

- IC50 [11]: 52000 nM
Compound: O=C(NCc1ccc(Cl)cc1)[C@@H]1C[C@@H](O)CN1C(=O)c1ccccc1Cl
